Laboratory results from US20230364032A1, “USE OF 2-HOBA TO TREAT ATHEROSCLEROSIS” (Vanderbilt University, priority 2020, published 2023).
Entries after “also recorded” stand apart in the source; their conditions may differ.

Assays:
[1] = tested on: WT peritoneal macrophages; assay: Cholesterol enrichment of macrophages by LDL from treated mice; format: cell-based, mouse; conditions: LDL from 2-HOBA versus 4-HOBA or vehicle treated Ldlr−/− mice, 24 hrs
Description: (§1) FIG. 21A-D show the effects of 2-HOBA on plasma and LDL MDA adducts in hypercholesterolemic Ldlr^−/− mice. (20A) The MDA content in plasma from Ldlr^−/− mice consuming a Western diet for 16 weeks and treated with 2-HOBA, 4-HOBA, or vehicle was measured by TBARS Assay(*p<0.05, **p<0.01). (20B) The levels of MDA adducts were measured from LDL isolated from the Ldlr^−/− mice by ELISA. N=10 per group, ***p<0.001. (20C) LDL was isolated from control and FH subjects (n=6) pre and post LDL apheresis and the MDA adduct content was measured by ELISA. (20D) LDL was isolated from 2-HOBA, 4-HOBA, or vehicle treated hypercholesterolemic Ldlr^−/− mice. WT peritoneal macrophages were incubated for 24 hrs with the LDL and the cellular cholesterol content was measured as described in methods. (20A-D) One-way ANOVA with Bonferroni's post hoc test).
MDA was prepared immediately before use by rapid acid hydrolysis of maloncarbonyl bis-(dimethylacetal) as described^31. Briefly, 20 μL of 1 M HCl was added to 200 μL of maloncarbonyl bis-(dimethylacetal), and the mixture was incubated for 45 min at room temperature. The MDA concentration was determined by absorbance at 245 nm, using the coefficient factor 13, 700 M^−1 cm^−1. […] The LDL samples were incubated for 24 h with macrophages and the cholesterol content of the cells was measured using an enzymatic cholesterol assay as described^61.

[2] = tested on: MDA- and IsoLG-lysyl adducts; assay: Aorta dilysyl-MDA crosslinks and IsoLG-lysyl adducts by LC/MS/MS; format: in vivo, mouse; conditions: Ldlr−/− mice
Description: Isolation and LC/MS measurement of isolevuglandin-lysyl-lactam (IsoLG-Lys) adducts from aorta of 2-HOBA and 4-HOBA treated Ldlr^−/− mice were performed using a Waters Xevo-TQ-Smicro triple quadrupole mass spectrometer as previously described^69.
Samples (around 1 mg of protein) were digested with proteases as previously described for lysyl-lactam adducts^70. Five nanograms of ^13C6-dilysyl-MDA crosslink standard were added to each cell sample and dilysyl-MDA crosslinks were purified as previously described^71. The dilysyl-MDA crosslink was quantified by isotopic dilution by LC-EST/MS/MS as previously described^71.

[3] = tested on: aortic endothelial cells; assay: H2O2-induced apoptosis of endothelial cells (Annexin V); format: cell-based, mouse; conditions: 250 μM H2O2, 24 h, 500 μM compound; compared to vehicle or 4-HOBA
Description: (6A and 6B) Mouse aortic endothelial cells (6A) or primary macrophages (6B) were incubated for 24 h with 250 μM H2O2 alone or with either 4-HOBA or 2-HOBA (500 μM). Apoptotic cells were then detected by Annexin V staining and flow cytometry. (6C to 6H) The mRNA levels of IL-1β, IL-6, and TNF-α were analyzed by real time PCR in the peritoneal macrophages incubated for 24 h with either oxidized LDL (6C-6E) or 250 μM H2O2 (6F-6H) alone or with either 4-HOBA or 2-HOBA (500 μM). (6A to 6H) Data are presented as mean±SEM from three independent experiments, ***p<0.001, One-way ANOVA with Bonferroni's post hoc test.
Peritoneal macrophages were isolated from mice 72 hours post injection of 3% thioglycollate and maintained in DMEM plus 10% fetal bovine serum (FBS, Gibco) as previously described^30. Human aortic endothelial cells (HAECs) were obtained from Lonza and maintained in endothelial cell basal medium-2 plus 1% FBS and essential growth factors (Lonza).
Cell apoptosis was induced as indicated and detected by fluorescent labeled Annexin V staining and quantitated by either Flow Cytometry (BD 5 LSRII) or counting Annexin V positive cells in images captured under a fluorescent microscope. The apoptotic cells in atherosclerotic lesions were measured by TUNEL staining of cross-sections of atherosclerotic proximal aortas as previously described^30. […]

[4] = tested on: MDA; assay: Plasma MDA content by TBARS assay; format: in vivo, mouse; conditions: Ldlr−/− mice, western diet 16 weeks; versus 4-HOBA or vehicle
Description: as §1

NCc1ccccc1O [2-HOBA, 2-hydroxybenzylamine]
ability of LDL from treated mice to enrich cells with cholesterol [1]: not different | MDA and IsoLG adduct content of atherosclerotic lesions/aortas [2]: decreases; also recorded: markedly reduced | decrease of whole aorta IsoLG-lysyl adduct content ([2]; compared to 4-HOBA treatment): 23% | decrease of whole aorta MDA-lysyl adduct content ([2]; compared to 4-HOBA treatment): 59% | number of apoptotic cells, endothelial cell cultures [3]: markedly decreased | plasma levels of MDA [4]: decreased
